Test results as given in patent publication US20210113586A1, “NEW USE AND METHODS OF MODULATING IMMUNE RESPONSES” (DIAMYD MEDICAL AB, priority 2018, published 2021).

Legend:
Format in all cases: cell-based, human
responder CD4+ T cells [1] = test: Proliferation of anti-CD3 stimulated GABA responder CD4+ T cells from ND individuals; conditions: for effect of agonist on proliferation: 100 nM, FIG. 3f
Method: (§1) Peripheral Blood Mononuclear cells (PBMCs) are isolated from blood from donors diagnosed with Type-1 diabetes and healthy controls. Alternatively, CD4-positive cells (T-cells) are further isolated from PBMCs by e.g. MACS beads, FACS or similar technology. […] A reasonable replication, such as 3 cultures of each condition, is performed. A normalized proliferation value for each culture is then calculated by a standard proliferation measurement method, such as by CFSE staining or radioactive thymidine incorporation (requiring additional factors be added during culture) or by staining for proliferation markers.
(§2) In the FIG. 1, the proliferation of cells retrieved from 13 T1D subjects and 15 healthy controls were inspected. […] A normalized proliferation index was calculated for each culture.
(§3) The proliferation of freshly isolated human PBMCs or CD4^+ T cells was evaluated with MTT (3-(4,5-Dimethylthiazol-2-yl)-2,5-Diphenyltetrazolium Bromide) assay (Ring et al., 2012). Cells were suspended in complete medium (RPMI 1640 supplemented with 2 mM glutamine, 25 mM HEPES, 10% heat inactivated fetal bovine serum, 100 U/ml penicillin, 10 mg/ml streptomycin, 5 mM R-mercaptoethanol) in a concentration 1 million cells per milliliter. The assay was performed in 96-well plates in duplicates or triplicates, where each well was pre-coated with 3 μg/ml anti-CD3 antibody for 3-5 h at 37° C. Each well was loaded with 100,000 cells. Drugs were added to the wells at the relevant concentrations. The plate was incubated for 68 h at 37° C. (95% O2, 5% CO2) and then, a media-soluble tetrazolium dye MTT was added to a final concentration of 1 mM after which the plate was incubated for additional 4 h. The plate was then centrifuged at 2,000 RPM for 10 min to pellet the insoluble purple formazan crystals. The supernatant culture media was collected, stored at −80° C. and used for analysis of cytokines using the multiplex proximity extension assay (PEA). The formazan crystal pellet was dissolved in DMSO and the plate was read within 10 min using a Multiskan MS plate reader (Labsystems) at 550 nm. The optical density value was used as the proliferation index value. Drugs were purchased from Sigma-Aldrich or Tocris (Bristol, UK).

GABAA receptors = test: Patch-clamp single-channel current recording in CD4+ T cells; conditions: picrotoxin 100 μM; FIG. 3i
Method: GABA-activated currents were recorded by the patch-clamp technique as previously described (Bjurstom et al., 2008, Jin et al., 2011a). Extracellular recording solution contained (in mM): 145 NaCl, 3 KCl, 1 CsCl, 1 CaCl2, 1 MgCl2, 10 glucose and 10 TES; the pH was adjusted to 7.4 with NaOH. To record in the whole-cell configuration, the pipette solution contained (in mM): 136 CsCl, 20 KCl, 1 MgCl2, 3 MgATP and 10 TES; pH was adjusted to 7.3 with CsOH. The pipette solution for the cell-attached configuration contained (in mM): 69 NaCl, 5 KCl, 75 CsCl, 1 CaCl2, 1 MgCl2 and 10 TES; pH was adjusted to 7.4 with NaOH. […] The pipette potential (Vp) was −80 mV (hyperpolarizing) in the whole-cell configuration and −60 mV (depolarizing) in the cell-attached configuration.

responder CD4+ T cells [2] = test: Multiplex PEA of cytokines released into culture medium by responder CD4+ T cells; conditions: GABA plus 100 μM picrotoxin
Method: as §3
Plasma samples, and culture media samples that were collected from plate wells at the end of the proliferation assay, were analyzed by multiplex PEA with an Olink Inflammation […] panel, targeting 92 proteins related to inflammation (Olink Proteomics, Uppsala, Sweden) as previously described (Edvinsson et al., 2017, Assarsson et al., 2014, Larsson et al., 2015, Larssen et al., 2017). Briefly, 1 μl of sample (plasma samples or cell culture media samples) or negative control was mixed with 3 μl probe solution containing a set of 92 paires DNA-oligonucleotide-conjugated antibodies. Upon recognition of a target protein by a pair of probes, the DNA oligonucletodies on the antibodies are brought in proximity and hybridize to each other, followed by enzymatic DNA polymerization to form a new DNA molecule. The newly formed DNA molecule is then amplified and quantified using a microfluidic real-time qPCR, BioMark™ HD (Fluidigm, South San Francisco, Calif., USA). The generated quantification cycle (Cq) values are normalized against spiked-in controls to convert Cq values to Normalized Protein eXpression (NPX) value on log2 scale. NPX is an arbitrary unit, which is positively correlated to protein concentration. These NPX data were then converted to linear data, using the formula 2^NPX, prior to further statistical analysis. Limit of detection (LOD) for each protein was defined as three standard deviations above the background. Proteins with levels below LOD were excluded from further data analysis.

[3] = system: PBMCs from T1D individuals; test: Proliferation of anti-CD3 stimulated PBMCs from T1D donors; conditions: GABA plus picrotoxin
Method: as §1, §2
as §3, with “The optical density value was used as the proliferation index value. Drugs were purchased from Sigma-Aldrich or Tocris (Bristol, UK).” left out

[4] = FIG. 5b-c legend, GABA concentration and cell group not given

## CCOC(OCC)P(=O)(O)CCCNCc1ccc(Cl)c(Cl)c1 [CGP52432]
Responder CD4+ T cells [1]; 50 μM, FIG. 3e
  effect of antagonist on proliferation: ineffective

## NC/C=C/C(=O)O [TACA]
Responder CD4+ T cells [1]
  effect of agonist on proliferation: inhibited the proliferation similar to GABA

## NCC(CC(=O)O)c1ccc(Cl)cc1 (stereo not shown) [baclofen]
Responder CD4+ T cells [1]
  effect of agonist on proliferation: ineffective

## NCc1cc(=O)[nH]o1 [muscimol]
Responder CD4+ T cells [1]
  effect of agonist on proliferation: inhibited the proliferation similar to GABA

## picrotoxin [reference compound]
GABAA receptors
  effect on GABA-activated single-channel currents: blocked
Responder CD4+ T cells [1]; Example 1, FIG. 1B, GABA plus picrotoxin
  effect on GABA-reduced proliferation: reversed
Responder CD4+ T cells [1]; picrotoxin, FIG. 3e
  effect on 500 nM GABA-induced inhibition of proliferation: partially reversed
Responder CD4+ T cells [2]; [4]
  CCL19, 2^NPX normalized to controls, mean and SEM: 1.72±0.74
  CCL20, 2^NPX normalized to controls, mean and SEM: 1.43±0.51
  CXCL11, 2^NPX normalized to controls, mean and SEM: 1.55±0.51
Responder CD4+ T cells [2]; FIG. 5b, c
  effect on GABA inhibition of cytokine release: reversed
[3]; Example 1, FIG. 1D
  effect on GABA-reduced proliferation: reversed
[3]; Example 2, FIG. 3b
  effect on GABA inhibition of proliferation: reversed
